The values that follow come from article PMC3297362 (Journal of Medicinal Chemistry, 2012).

For experiment [1], the target named is T1, hCOX-2 in HNSCC 1483 cells (Homo sapiens, UniProt P35354).
T1 sequence (P35354 18-604): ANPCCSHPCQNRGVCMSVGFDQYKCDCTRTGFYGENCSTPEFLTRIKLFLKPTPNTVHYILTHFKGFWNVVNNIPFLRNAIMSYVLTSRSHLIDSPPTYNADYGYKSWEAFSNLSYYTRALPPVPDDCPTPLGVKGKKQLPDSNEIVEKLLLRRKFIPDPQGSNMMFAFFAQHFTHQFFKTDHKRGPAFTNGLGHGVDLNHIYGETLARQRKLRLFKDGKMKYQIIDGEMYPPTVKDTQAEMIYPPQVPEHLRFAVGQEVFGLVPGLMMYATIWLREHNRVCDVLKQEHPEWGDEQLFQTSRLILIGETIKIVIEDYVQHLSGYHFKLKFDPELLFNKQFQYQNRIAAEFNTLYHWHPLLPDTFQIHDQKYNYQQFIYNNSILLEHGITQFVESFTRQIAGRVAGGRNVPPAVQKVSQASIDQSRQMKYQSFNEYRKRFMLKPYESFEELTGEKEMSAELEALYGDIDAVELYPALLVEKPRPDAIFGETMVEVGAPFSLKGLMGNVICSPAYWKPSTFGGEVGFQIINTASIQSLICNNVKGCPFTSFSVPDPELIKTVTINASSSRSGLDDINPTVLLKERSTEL
It is filed as cell-based. The note with it: at 5 μM.

Experiment [2] relates to peroxisome proliferator-activated receptor (PPAR)γ. The note with it: cell culture; cited from earlier work.
Experiment [3] addresses T2, ovine COX-1 (Ovis aries, UniProt P05979).
T2 sequence (P05979 25-600): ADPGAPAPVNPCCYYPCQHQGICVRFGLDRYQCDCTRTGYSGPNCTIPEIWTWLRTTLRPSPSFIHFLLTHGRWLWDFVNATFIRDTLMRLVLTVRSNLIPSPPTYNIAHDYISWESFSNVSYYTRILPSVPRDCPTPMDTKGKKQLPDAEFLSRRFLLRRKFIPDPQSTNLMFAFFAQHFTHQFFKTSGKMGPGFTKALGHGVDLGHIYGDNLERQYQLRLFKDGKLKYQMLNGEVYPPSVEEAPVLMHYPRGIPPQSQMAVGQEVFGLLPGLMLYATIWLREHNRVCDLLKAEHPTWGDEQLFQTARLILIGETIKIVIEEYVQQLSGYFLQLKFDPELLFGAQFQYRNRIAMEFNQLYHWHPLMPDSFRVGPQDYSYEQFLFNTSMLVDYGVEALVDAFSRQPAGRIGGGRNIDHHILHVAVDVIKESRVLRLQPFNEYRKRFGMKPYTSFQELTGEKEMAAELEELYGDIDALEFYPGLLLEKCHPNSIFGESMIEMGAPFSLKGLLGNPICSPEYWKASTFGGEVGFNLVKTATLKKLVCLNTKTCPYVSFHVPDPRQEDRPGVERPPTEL
The experiment is classed as biochemical.

For experiment [4], the target named is T3, murine COX-2 (Mus musculus, UniProt Q05769).
T3 sequence (Q05769 18-604): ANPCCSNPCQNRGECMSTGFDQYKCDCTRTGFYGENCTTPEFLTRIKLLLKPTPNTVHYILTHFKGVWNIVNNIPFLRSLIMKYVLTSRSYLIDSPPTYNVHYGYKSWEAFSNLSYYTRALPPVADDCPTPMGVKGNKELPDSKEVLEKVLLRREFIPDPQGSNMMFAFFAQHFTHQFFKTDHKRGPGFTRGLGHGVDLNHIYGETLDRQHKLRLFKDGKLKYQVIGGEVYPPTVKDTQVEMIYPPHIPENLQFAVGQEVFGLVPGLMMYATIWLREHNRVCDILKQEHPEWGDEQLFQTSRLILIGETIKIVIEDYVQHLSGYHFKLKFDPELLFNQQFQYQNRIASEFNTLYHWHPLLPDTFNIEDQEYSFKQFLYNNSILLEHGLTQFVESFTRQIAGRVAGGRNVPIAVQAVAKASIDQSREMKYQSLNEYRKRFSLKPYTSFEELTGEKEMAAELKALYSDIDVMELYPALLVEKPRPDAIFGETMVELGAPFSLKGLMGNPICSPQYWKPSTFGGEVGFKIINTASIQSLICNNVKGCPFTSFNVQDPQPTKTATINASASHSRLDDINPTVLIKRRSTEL
In words: biochemical. The note with it: COX-2 IC50, purified mCOX-2; 5 μM AA.

Structures are written as SMILES.

Regarding `CSc1ccc(/C=C2\C=C(CC(=O)O)c3cc(F)ccc32)cc1` [compound 2, (E)-2-(5-fluoro-1-(4-(methylthio)benzylidene)-1H-inden-3-yl)acetic acid], in experiment [1], the “inhibition of hCOX-2 in HNSCC 1483 cells (in words)” value is “no inhibition”.

As to `O=C(O)CC1=C/C(=C\c2ccc(-c3ccccc3)cc2)c2ccc(F)cc21` [compound 13a], the “activation of PPARγ (in words)” value in experiment [2] is on record as “potent activator”. Besides, the “inhibition of hCOX-2 in HNSCC 1483 cells (in words)” value in experiment [1] is “no inhibition”.

For `O=C(CC1=C/C(=C\c2ccc(-c3ccccc3)cc2)c2ccc(F)cc21)NS(=O)(=O)C(F)(F)F` [compound 21c, (E)-2-(1-([1,1′-Biphenyl]-4-ylmethylene)-5-fluoro-1H-inden-3-yl)-N-((trifluoromethyl)sulfonyl)-acetamide], the “improvement in activity against COX-1 as compared with reference compound 2” value in experiment [3] is “more than 4 fold”. In experiment [4], this compound gave an IC50 of 14 µM.
